The text below walks through data of publication PMC2854646 (Oncogene, 2008).

This experiment has as its target T1, E1 (ubiquitin-activating enzyme) (Homo sapiens, UniProt P22314).
T1 sequence (P22314 2-1058): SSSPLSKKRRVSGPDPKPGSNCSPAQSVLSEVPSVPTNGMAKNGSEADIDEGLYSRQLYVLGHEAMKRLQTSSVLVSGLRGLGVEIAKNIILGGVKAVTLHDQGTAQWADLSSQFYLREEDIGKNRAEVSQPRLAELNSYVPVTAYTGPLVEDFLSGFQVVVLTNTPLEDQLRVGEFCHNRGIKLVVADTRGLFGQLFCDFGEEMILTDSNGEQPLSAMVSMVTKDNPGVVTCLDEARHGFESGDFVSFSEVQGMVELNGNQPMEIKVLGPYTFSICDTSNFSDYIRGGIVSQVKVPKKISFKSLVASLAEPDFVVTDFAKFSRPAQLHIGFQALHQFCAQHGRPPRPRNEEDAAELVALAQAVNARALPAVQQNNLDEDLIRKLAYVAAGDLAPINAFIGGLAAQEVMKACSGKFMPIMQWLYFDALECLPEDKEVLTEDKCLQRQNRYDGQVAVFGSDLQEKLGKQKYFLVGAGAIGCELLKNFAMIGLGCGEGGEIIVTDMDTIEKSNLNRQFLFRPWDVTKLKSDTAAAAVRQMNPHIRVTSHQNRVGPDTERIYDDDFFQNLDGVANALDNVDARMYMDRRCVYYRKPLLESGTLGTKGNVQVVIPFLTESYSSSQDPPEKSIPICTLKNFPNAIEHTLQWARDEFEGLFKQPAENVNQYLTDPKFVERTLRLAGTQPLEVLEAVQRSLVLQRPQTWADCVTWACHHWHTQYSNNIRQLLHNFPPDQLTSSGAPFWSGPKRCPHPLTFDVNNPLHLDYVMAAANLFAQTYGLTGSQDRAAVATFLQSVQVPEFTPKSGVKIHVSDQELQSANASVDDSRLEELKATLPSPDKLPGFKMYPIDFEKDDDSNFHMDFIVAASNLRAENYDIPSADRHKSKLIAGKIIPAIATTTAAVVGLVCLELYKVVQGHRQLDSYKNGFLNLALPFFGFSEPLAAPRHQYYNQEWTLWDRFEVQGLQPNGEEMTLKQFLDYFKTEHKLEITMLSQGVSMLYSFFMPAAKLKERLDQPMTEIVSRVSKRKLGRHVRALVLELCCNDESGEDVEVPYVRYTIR
Nature of the experiment: ubiquitin~E1 thioester immunoblot. It is filed as cell-based.

Each structure is given as a SMILES string.

Usually IC50 stands for the concentration needed to halve the response being measured. Molecule `CCOC(=O)N1CCN(/[N+]([O-])=N/Oc2ccc([N+](=O)[O-])cc2[N+](=O)[O-])CC1` [JS-K, O^2-(2,4-dinitrophenyl) 1-[(4-ethoxycarbonyl)piperazin-1-yl]diazen-1-ium-1,2-diolate] gave an IC50 of about 2000 nM.
